Read-outs that look alike come from different tables or passages of the source.
Target: T1, Akt1 (Homo sapiens, UniProt P31749)
T1 construct: recombinant human Akt1 protein (1775-KS-010, Bio-Techne)
Assay: SPR (Biacore T200, Akt1 amine-coupled on CM5 chip, […] steady-state fit)
Assay type: binding

T1 sequence (P31749 whole entry): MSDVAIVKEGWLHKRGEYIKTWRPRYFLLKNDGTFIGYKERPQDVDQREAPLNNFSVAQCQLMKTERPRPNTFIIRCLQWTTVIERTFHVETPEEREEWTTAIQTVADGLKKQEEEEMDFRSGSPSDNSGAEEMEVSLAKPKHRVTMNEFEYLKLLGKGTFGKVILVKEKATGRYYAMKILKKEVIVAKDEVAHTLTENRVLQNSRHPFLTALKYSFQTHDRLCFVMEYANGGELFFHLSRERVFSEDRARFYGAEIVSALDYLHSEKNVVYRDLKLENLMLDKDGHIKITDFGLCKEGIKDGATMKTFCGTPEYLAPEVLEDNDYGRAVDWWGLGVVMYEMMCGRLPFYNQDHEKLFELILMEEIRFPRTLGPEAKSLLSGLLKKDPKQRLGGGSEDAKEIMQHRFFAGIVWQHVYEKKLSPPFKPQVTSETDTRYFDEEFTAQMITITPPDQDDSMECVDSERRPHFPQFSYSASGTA

Row | Structure (SMILES) | Kd (read-out: Kd) [µM] | Kd [µM]
1 | COc1cc2ccc(=O)oc2cc1O [scopoletin] | 11.1 | 
2 | CCCC[C@@H]1OC(=O)C2=C1CCC=C2 [senkyunolide A] |  | 752

Reference: PMC10206061, “Suxiao Jiuxin Pill attenuates acute myocardial ischemia via regulation of coronary artery tone” (Frontiers in Pharmacology, 2023)
